1 molecule from US11590117B2, “Treatment of a hematologic malignancy with 2-(4-chlorophenyl)-n-((2-(2,6-dioxopiperidin-3-yl)-1-oxoisoindolin-5-yl)methyl)-2,2-difluoroacetamide” (priority 2016, dated 2023) can be followed below.

The experiment concerns OCI-AML3. Description: Annexin V/7-AAD flow cytometry apoptosis assay. Format: cell-based, human. The conditions noted are these: OCI-AML3 (Compound 1-insensitive AML line). The method, then:
Cell Apoptosis Assays: The ability of Compound 1 to induce apoptosis was assessed in selected AML cell lines and healthy PBMCs at the time points and compound concentrations indicated. For Annexin V/7-AAD readout by flow cytometry, AML cell lines were plated into flat bottom 96-well plates (BD Falcon) at a seeding density of 0.1 to 0.3×10^6 cells per mL in 200 μL complete media. Compound 1 was dispensed onto the plates and the cells were incubated for the times indicated. For frozen PBMCs, cells were thawed as previously described and plated at a seeding density of 1×10^6 cells per mL in 200 μL on Corning® BioCoat™ T-Cell Activation Anti-Human CD3 96-well plates (Corning Inc., Corning, N.Y.). Compound 1 was dispensed onto the plates and the cells were incubated for the times indicated. […] One hundred microliters of Annexin V/7-AAD buffer was added per well and the cells incubated for 15 minutes before being analyzed using the Attune Flow Cytometer (Life Technologies, Carlsbad, Calif.). For caspase 3/7 activity, the remaining 100 μL was incubated with CellEvent™ Caspase-3/7 Green ReadyProbes® Reagent (1:1000 dilution; Molecular Probes) for 15 minutes before being analyzed using the Attune Flow Cytometer. […]
Compound 1 Induces Apoptosis in Acute Myeloid Leukemia Cell Lines. […] 0.01 μM and 0.1 μM and apoptosis was assessed over time.

Consider `O=C1CCC(N2Cc3cc(CNC(=O)C(F)(F)c4ccc(Cl)cc4)ccc3C2=O)C(=O)N1` (stereo not shown) [Compound 1, 2-(4-chlorophenyl)-N-((2-(2,6-dioxopiperidin-3-yl)-1-oxoisoindolin-5-yl)methyl)-2,2-difluoroacetamide], for which the induction of apoptosis entry was “did not induce apoptosis”.
